Assay [1] deals with OPM-2 human multiple myeloma cell line. The assay is described as follows: Cell Viability Assay (OPM-2 10 FBS). Type of assay: cell-based. As to conditions: OPM-2 cells, CellTiter-Glo, read-out: OPM-2 10% FBS IC50 IP. Put shortly: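 Compounds, serially diluted, were left on OPM-2 cells (3000 cells/well, 10% FBS RPMI 1640) for 16 h at 37° C. under 5% CO2.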
Background: In ATP-based viability assays light output follows the ATP content of the culture.

The target of assay [2] is Mcl-1/Bim interaction (recombinant human Mcl-1 residues 171-327) (Homo sapiens (Human), UniProt Q07820). Put plainly: Cell Free Mcl-1:Bim Affinity Assay (Mcl-1 HTRF). The format is binding. The note with it: TR-FRET, 0.1 nM Mcl-1(171-327), 0.05 nM biotin-Bim(51-76). An outline of the steps:
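TR-FRET competition using 0.1 nM His-tagged Mcl-1(171-327), 0.05 nM biotin-Bim(51-76), Eu anti-His and streptavidin-Xlent in 20 mM Hepes pH 7.5, 150 mM NaCl, Brij-35, 1 mM DTT. Compounds pre-incubated 60 min with protein and peptide, then overnight after detection mix; 665/620 nm ratio fitted to four-parameter curves for IC50 (duplicates).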
A general note: In TR-FRET formats the signal depends on donor and acceptor labels being close together.

The structures appear in SMILES notation. Where two headings read alike, the source gives them in different places.

What is called IC50 is the concentration that gives 50% inhibition.

Mcl-1/Bim interaction (recombinant human Mcl-1 residues 171-327), sequence (Q07820 171-327): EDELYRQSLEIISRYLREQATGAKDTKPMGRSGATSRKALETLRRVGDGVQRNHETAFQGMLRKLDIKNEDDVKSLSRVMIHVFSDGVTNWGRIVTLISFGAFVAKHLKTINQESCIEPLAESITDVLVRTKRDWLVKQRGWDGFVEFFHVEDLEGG

For the molecule `C[C@@H]1[C@@H](C)CCC[C@H](CN2CCN3CCN(S(C)(=O)=O)C[C@@H]3C2)[C@@H]2CC[C@H]2CN2C[C@@]3(CCCc4cc(Cl)ccc43)COc3ccc(cc32)C(=O)NS1(=O)=O` (stereo in doubt) [Example 30], the IC50 in assay [1] (16 h) was 370 nM; in assay [2], 0.516 nM.
In the case of `C[C@@H]1[C@@H](C)CCC[C@H](CN2CCN3CCOC[C@@H]3C2)[C@@H]2CC[C@H]2CN2C[C@@]3(CCCc4cc(Cl)ccc43)COc3ccc(cc32)C(=O)NS1(=O)=O` (stereo in doubt) [Example 32], the IC50 turned out to be 380 nM in assay [1] (16 h) and 0.493 nM in assay [2].
Turning to `CC(=O)N1CCN(C[C@H]2CCC[C@H](C)[C@@H](C)S(=O)(=O)NC(=O)c3ccc4c(c3)N(C[C@@H]3CC[C@@H]23)C[C@@]2(CCCc3cc(Cl)ccc32)CO4)CC1` (stereo in doubt) [Example 33], the IC50 was found to be 411 nM in assay [1] (16 h) and 0.172 nM in assay [2].
On to `COCCN1CCN(C[C@H]2CCC[C@H](C)[C@@H](C)S(=O)(=O)NC(=O)c3ccc4c(c3)N(C[C@@H]3CC[C@@H]23)C[C@@]2(CCCc3cc(Cl)ccc32)CO4)CCC1=O` (stereo in doubt) [Example 36], for which the IC50 was 443 nM in assay [1] (Homo sapiens, OPM-2, 16 h) and 0.265 nM in assay [2].
Consider `COCCN1CCCN(C[C@H]2CCC[C@H](C)[C@@H](C)S(=O)(=O)NC(=O)c3ccc4c(c3)N(C[C@@H]3CC[C@@H]23)C[C@@]2(CCCc3cc(Cl)ccc32)CO4)CC1=O` (stereo in doubt) [Example 42], for which the IC50 in assay [1] (Homo sapiens, OPM-2, 16 h) stood at 593 nM; in assay [2] it was 0.408 nM.
For `C[C@@H]1[C@@H](C)CCC[C@H](CN2CCOCC2)[C@@H]2CC[C@H]2CN2C[C@@]3(CCCc4cc(Cl)ccc43)COc3ccc(cc32)C(=O)NS1(=O)=O` (stereo in doubt) [Example 55], the IC50 in assay [1] (16 h) is 1020 nM; in assay [2], 0.843 nM.
With `C[C@@H]1[C@@H](C)C/C=C/[C@H](CN2CCOCC2)[C@@H]2CC[C@H]2CN2C[C@@]3(CCCc4cc(Cl)ccc43)COc3ccc(cc32)C(=O)NS1(=O)=O` (stereo in doubt) [Example 62], the IC50 in assay [1] (Homo sapiens, OPM-2, 16 h) turned out to be 1440 nM; in assay [2], 0.388 nM.
For the molecule `C[C@@H]1[C@@H](C)CCC[C@H](CN2CCN3CCNC[C@@H]3C2)[C@@H]2CC[C@H]2CN2C[C@@]3(CCCc4cc(Cl)ccc43)COc3ccc(cc32)C(=O)NS1(=O)=O` (stereo in doubt) [Example 81], the IC50 in assay [1] (Homo sapiens, OPM-2, 16 h) turned out to be 3560 nM; in assay [2], 0.831 nM.
For the molecule `C[C@@H]1[C@@H](C)CCC[C@H](C=O)[C@@H]2CC[C@H]2CN2C[C@@]3(CCCc4cc(Cl)ccc43)COc3ccc(cc32)C(=O)NS1(=O)=O` [Example 60], the IC50 in assay [1] (16 h) was determined as 1330 nM; in assay [2], 0.552 nM.

Values taken from patent publication US11279712B2, “Macrocyclic compounds that inhibit MCL-1 protein” (AMGEN INC., priority 2017, dated 2022).
